Measured values published in patent publication US8389552B2, “(S)-6-(2-(4-(cyclobutylsulfonyl)-1H-imidazol-1-yl)-3-cyclopentylpropanamido)nicotinic acid useful as a glucokinase activator” (Pfizer Inc., priority 2009, dated 2013).

Target: T1, Full-length glucokinase (beta cell isoform) (Homo sapiens, UniProt P35557)
T1 construct: Full-length glucokinase (beta cell isoform) was His-tagged at N-terminus; His tag (N); made in house; host or cells: E. coli BL21(DE3), pBCGK vector
T1 sequence (P35557 1-465): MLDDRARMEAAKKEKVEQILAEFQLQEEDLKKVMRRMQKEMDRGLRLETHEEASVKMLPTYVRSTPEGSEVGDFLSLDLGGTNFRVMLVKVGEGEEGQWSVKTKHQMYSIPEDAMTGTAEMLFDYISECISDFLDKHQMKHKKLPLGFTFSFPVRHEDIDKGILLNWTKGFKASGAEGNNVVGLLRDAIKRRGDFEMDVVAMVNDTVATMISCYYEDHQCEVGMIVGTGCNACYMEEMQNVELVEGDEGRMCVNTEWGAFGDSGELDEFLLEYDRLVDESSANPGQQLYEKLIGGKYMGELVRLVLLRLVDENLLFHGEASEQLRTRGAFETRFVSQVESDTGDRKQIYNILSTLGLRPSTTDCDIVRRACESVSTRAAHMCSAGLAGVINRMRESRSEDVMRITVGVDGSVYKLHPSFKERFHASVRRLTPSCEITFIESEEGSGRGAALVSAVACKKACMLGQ
Assay: Glucokinase activation assay (PK/LDH-coupled, NADH depletion at 340 nm)
Format: biochemical
Details: 5 mM glucose, single value or range where N>1; for EC50: 2.5 mM ATP, pH 7.1, room temperature, read-out: EC50; for Emax: % max activation = (Va/Vo−1)×100 from fit, pH 7.1, read-out: Maximum Activation (%)
Procedure: Full-length glucokinase (beta cell isoform) was His-tagged at N-terminus and purified by a Ni column followed by size exclusion chromatography. A 320 mL column was packed in house using Superdex75 (Amersham Pharmacia, Carlsbad, Calif.) preparation grade resin. Glucose was obtained from Calbiochem (San Diego, Calif.) and other reagents were purchased from Sigma-Aldrich (St. Louis, Mo.).
All assays were performed in a Corning 384-well plate using Spectramax PLUS spectrophotometer (Molecular Devices, Sunnyvale, Calif.) at room temperature. The final assay volume was 40 ∥L. The buffer conditions used in this assay were as follows: 50 mM HEPES, 5 mM glucose, 2.5 mM ATP, 3.5 mM MgCl2, 0.7 mM NADH, 2 mM dithiothreitol, 1 unit/mL pyruvate kinase/lactate dehydrogenase (PK/LDH), 0.2 mM phosphoenolpyruvate, and 25 mM KCl. The buffer pH was 7.1. The test compound in dimethylsulfoxide solution was added to the buffer and mixed by a plate shaker for 7.5 minutes. The final concentration of dimethylsulfoxide introduced into the assay was 0.25%.
Glucokinase was added to the buffer mixture to initiate the reaction in the presence and absence of compound. The reaction was monitored by absorbance at 340 nm due to the depletion of NADH. The initial reaction velocity was measured by the slope of a linear time course of 0-300 seconds. The percentage of maximum activation was calculated by the following equation: % Maximum Activation=(Va/Vo−1)×100; wherein each of Va and Vo is defined as the initial reaction velocity in the presence and absence of the tested compound, respectively.
The glucokinase activities were measured as a function of compound concentrations.

Row | Compound | EC50 | Emax
1 | O=C(Nc1nc2cccnc2s1)[C@H](CC1CCOCC1)n1cnc(C(F)(F)F)c1 [Example 77, (S)-3-(tetrahydro-2H-pyran-4-yl)-N-(thiazolo[5,4-b]pyridin-2-yl)-2-(4-(trifluoromethyl)-1H-imidazol-1-yl)propanamide] | 18 µM | 139%
2 | Cc1cnc(NC(=O)[C@H](CC2CCCC2)n2ccc(C(F)(F)F)n2)cn1 [Example 70, (S)-3-cyclopentyl-N-(5-methylpyrazin-2-yl)-2-(3-(trifluoromethyl)-1H-pyrazol-1-yl)propanamide] | 24 µM | 124%
3 | Cc1cnc(NC(=O)[C@H](CC2CCCC2)n2cnc(S(=O)(=O)C(C)C)c2)cn1 [Example 30, (S)-3-cyclopentyl-2-(4-(isopropylsulfonyl)-1H-imidazol-1-yl)-N-(5-methylpyrazin-2-yl)propanamide] | 10 µM | 100%
4 | COc1ccc2nc(NC(=O)[C@H](CC3CCOCC3)n3cnc(C(F)(F)F)c3)sc2n1 [Example 78, (S)—N-(5-methoxythiazolo[5,4-b]pyridin-2-yl)-3-(tetrahydro-2H-pyran-4-yl)-2-(4-(trifluoromethyl)-1H-imidazol-1-yl)propanamide] | 4.2 to 4.4 µM | 109 to 114%
5 | Cc1ccc(NC(=O)[C@H](CC2CCCC2)n2ncc(C(F)(F)F)c2C)nc1 [Example 97, (S)-3-cyclopentyl-2-(5-methyl-4-(trifluoromethyl)-1H-pyrazol-1-yl)-N-(5-methylpyridin-2-yl)propanamide] | 28 µM | 136%
6 | Cn1ccc(NC(=O)[C@H](CC2CCOCC2)n2cnc(C(F)(F)F)c2)n1 [Example 76, (S)—N-(1-methyl-1H-pyrazol-3-yl)-3-(tetrahydro-2H-pyran-4-yl)-2-(4-(trifluoromethyl)-1H-imidazol-1-yl)propanamide] | 18 µM | 138%
7 | CCS(=O)(=O)c1cnn([C@@H](CC2CCCC2)C(=O)Nc2cnc(C)cn2)c1 [Example 22, (S)-3-cyclopentyl-2-(4-(ethylsulfonyl)-1H-pyrazol-1-yl)-N-(5-methylpyrazin-2-yl)propanamide] | 25 µM | 144%
8 | Cc1cnc(NC(=O)[C@H](CC2CCCC2)n2cnc(S(C)(=O)=O)n2)cn1 [Example 27, (S)-3-cyclopentyl-N-(5-methylpyrazin-2-yl)-2-(3-(methylsulfonyl)-1H-1,2,4-triazol-1-yl)propanamide] | 22 µM | 120%
9 | CC(C)S(=O)(=O)c1cn([C@@H](CC2CCCC2)C(=O)Nc2ccn(C)n2)cn1 [Example 29, (S)-3-cyclopentyl-2-(4-(isopropylsulfonyl)-1H-imidazol-1-yl)-N-(1-methyl-1H-pyrazol-3-yl)propanamide] | 17 µM | 112%
10 | Cc1ccc(NC(=O)[C@H](CC2CCCO2)n2cnc(C(F)(F)F)c2)nc1 (mixture of isomers) [Example 82, (2S)—N-(5-methylpyridin-2-yl)-3-(tetrahydrofuran-2-yl)-2-(4-(trifluoromethyl)-1H-imidazol-1-yl)propanamide] | 5 µM | 115%
11 | CC(C)S(=O)(=O)c1cnn([C@@H](CC2CCCC2)C(=O)Nc2ncccn2)c1 [Example 5, (S)-3-cyclopentyl-2-(4-(isopropylsulfonyl)-1H-pyrazol-1-yl)-N-(pyrimidin-2-yl)propanamide] | > 100 µM | –
12 | Cc1ccc(NC(=O)[C@H](CC2CCCC2)n2cc(C(=O)N(C)C)cn2)nc1 [Example 72, (S)-1-(3-cyclopentyl-1-(5-methylpyridin-2-ylamino)-1-oxopropan-2-yl)-N,N-dimethyl-1H-pyrazole-4-carboxamide] | > 100 µM | –
13 | Cc1cnc(NC(=O)[C@H](CC2CCCC2)n2cc(S(C)(=O)=O)cn2)cn1 [Example 14, (S)-3-cyclopentyl-N-(5-methylpyrazin-2-yl)-2-(4-(methylsulfonyl)-1H-pyrazol-1-yl)propanamide] | 11 µM | 122%
14 | Cn1ccc(NC(=O)[C@H](CC2CCCC2)n2nnc(S(C)(=O)=O)n2)n1 [Example 79, (S)-3-cyclopentyl-N-(1-methyl-1H-pyrazol-3-yl)-2-(5-(methylsulfonyl)-2H-tetrazol-2-yl)propanamide] | 40 µM | 99%
15 | CCS(=O)(=O)c1cn([C@@H](CC2CCCC2)C(=O)Nc2cnc(C)cn2)cn1 [Example 33, (S)-3-cyclopentyl-2-(4-(ethylsulfonyl)-1H-imidazol-1-yl)-N-(5-methylpyrazin-2-yl)propanamide] | 16 µM | 136%
16 | CCn1ccc(NC(=O)[C@H](CC2CCCC2)n2cc(S(=O)(=O)C(C)C)cn2)n1 [Example 18, (S)-3-cyclopentyl-N-(1-ethyl-1H-pyrazol-3-yl)-2-(4-(isopropylsulfonyl)-1H-pyrazol-1-yl)propanamide] | 15.7 µM | 24%
17 | Cn1ccc(NC(=O)[C@H](CC2CCCC2)n2cnc(C(F)(F)F)c2)n1 [Example 43, (S)-3-cyclopentyl-N-(1-methyl-1H-pyrazol-3-yl)-2-(4-(trifluoromethyl)-1H-imidazol-1-yl)propanamide] | 2.9 to 3.5 µM | 147 to 166%

Stronger by EC50, values ahead:

Row | EC50 | Emax | Compound
18 | 0.2 to 0.3 µM | 120 to 138% | O=C(O)c1ccc(NC(=O)[C@H](CC2CCCCC2)n2cnc(C(F)(F)F)c2)nc1 [Example 90, (S)-6-(3-cyclohexyl-2-(4-(trifluoromethyl)-1H-imidazol-1-yl)propanamido)nicotinic acid]
19 | 0.4 to 1.2 µM | 158 to 168% | Cc1nc(C(F)(F)F)cn1[C@@H](CC1CCCC1)C(=O)Nc1ccc(C(=O)O)cn1 [Example 92, (S)-6-(3-cyclopentyl-2-(2-methyl-4-(trifluoromethyl)-1H-imidazol-1-yl)propanamido)nicotinic acid]
20 | 0.7 µM | 150% | O=C(O)c1ccc(NC(=O)[C@H](CC2CCCC2)n2cnc(C(F)(F)F)n2)nc1 [Example 88, (S)-6-(3-cyclopentyl-2-(3-(trifluoromethyl)-1H-1,2,4-triazol-1-yl)propanamido)nicotinic acid]
21 | 0.3 to 0.6 µM | 38 to 50% | Cc1ccc(NC(=O)[C@H](CC2CCCC2)n2cc(S(=O)(=O)C(C)C)cn2)nc1 [Example 1, (S)-3-cyclopentyl-2-(4-(isopropylsulfonyl)-1H-pyrazol-1-yl)-N-(5-methylpyridin-2-yl)propanamide]
22 | 0.8 to 2 µM | 51 to 78% | Cc1ccc(NC(=O)[C@H](CC2CCOCC2)n2cnc(C(F)(F)F)c2)nc1 [Example 75, (S)—N-(5-methylpyridin-2-yl)-3-(tetrahydro-2H-pyran-4-yl)-2-(4-(trifluoromethyl)-1H-imidazol-1-yl)propanamide]
23 | 2.2 µM | 168% | CCn1ncc(NC(=O)[C@H](CC2CCCC2)n2cnc(C(F)(F)F)c2)n1 [Example 49, (S)-3-cyclopentyl-N-(2-ethyl-2H-[1,2,3]triazol-4-yl)-2-(4-trifluoromethyl-1H-imidazol-1-yl)propanamide]
24 | 0.7 to 1.9 µM | 15 to 23% | CC(C)S(=O)(=O)c1cnn([C@@H](CC2CCCC2)C(=O)Nc2ccc(C(F)(F)F)cn2)c1 [Example 3, (S)-3-cyclopentyl-2-(4-(isopropylsulfonyl)-1H-pyrazol-1-yl)-N-(5-(trifluoromethyl)pyridin-2-yl)propanamide]
25 | 0.8 to 1 µM | 125 to 147% | Cc1ccc(NC(=O)[C@H](CC2CCCC2)n2cnc(C(F)(F)F)n2)nc1 [Example 85, (S)-3-cyclopentyl-N-(5-methylpyridin-2-yl)-2-(3-(trifluoromethyl)-1H-1,2,4-triazol-1-yl)propanamide]
